In patent US10799499B2, “Combinatorial therapies of neurological disorders” (PHARNEXT, priority 2016, dated 2020):

Columns and labels:
Male Swiss mice [1] = assay: Step-through passive avoidance test (contextual long-term memory) in mice injected ICV with Aβ25-35; assay type: in vivo, mouse; conditions: oral gavage Day 0 to Day 10, quinoline 1 mg/Kg once a day, baclofen 480 μg/Kg and acamprosate 32 μg/Kg twice a day, retention at Day 10
Experimental: (§1) The peptide amyloid-β25-35 (Aβ25-35) is the hydrophobic part of the full-length amyloid peptide. Injection of this peptide in the brain ventricles of rodents is known to induce a progressive neurodegenerative processes resulting in cognitive impairments. This model is commonly used for diseases involving cognitive impairment symptoms.
(§2) Male Swiss mice were administered from Day 0 to Day 10 with sham product (group 1 and 2); 3-phenylsulfonyl-8-(piperazin-1-yl) quinoline (group 3); baclofen and acamprosate (group 4); or 3-phenylsulfonyl-8-(piperazin-1-yl) quinoline, baclofen and acamprosate (group 5).
(§3) 3-phenylsulfonyl-8-(piperazin-1-yl) quinoline) was administered orally by gavage once a day (1 mg/Kg of the individual body weight of each mouse.
(§4) A composition of baclofen and acamprosate was administered orally by gavage twice a day (respectively 480 μg/Kg and 32 μg/Kg of the individual body weight of each mouse).
(§5) At Day 1, oligomeric Aβ25-35 peptide was injected ICV (intracerebroventricular) to provoke amyloid toxicity (group 2, 3, 4 and 5). […]
All animals were tested for passive avoidance performance, an index of contextual long-term memory. […] The step-through latency, that is, the latency spent to enter the darkened compartment, and the number of vocalizations were recorded. […] The step-through latency was recorded up to 300 s.

Male Swiss mice [2] = assay: Spontaneous alternation in the Y-maze (spatial working memory) in mice injected ICV with Aβ25-35; assay type: in vivo, mouse; conditions: oral gavage Day 0 to Day 10, quinoline 1 mg/Kg once a day, baclofen 480 μg/Kg and acamprosate 32 μg/Kg twice a day, test at Day 8
Experimental: as §1, §2, §3, §4, §5
Animals were tested for spontaneous alternation performance in the Y-maze, an index of spatial working memory. […] The number of maximum alternations was therefore the total number of arm entries minus two and the percentage of alternation was calculated as (actual alternations/maximum alternations)×100. […]

[3] = test system: primary cortical neuron cells; assay: Toxicity of human Aβ1-42 peptide on primary cortical neuron cells (MAP2 antibody labelling); assay type: cell-based, rat; conditions: combinations versus drugs used alone at the same doses
Experimental: Effect on the Toxicity of Human Aβ1-42 Peptide on Primary Cortical Neuron Cells.
Culture of Primary Cortical Neurons
Rat cortical neurons are cultured as described by Singer et al.. Briefly pregnant female rats of 15 days gestation were killed by cervical dislocation (Rats Wistar) and the foetuses were removed from the uterus. The cortex was removed and placed in ice-cold medium of Leibovitz (L15) containing 2% of Penicillin 10.000 U/ml and Streptomycin 10 mg/ml and 1% of bovine serum albumin (BSA). Cortices were dissociated by trypsin for 20 min at 37° C. (0.05%). The reaction was stopped by the addition of Dulbecco's modified Eagle's medium (DMEM) containing DNase 1 grade II and 10% of fetal calf serum (FCS). Cells were then mechanically dissociated by 3 serial passages through a 10 ml pipette and centrifuged at 515×g for […] at +4° C. The supernatant was discarded and the pellet of cells was re-suspended in a defined culture medium consisting of Neurobasal supplemented with B27 (2%), L-glutamine (0.2 mM), 2% of PS solution and 10 ng/ml of BDNF. Viable cells are counted in a Neubauer cytometer using the trypan blue exclusion test. The cells are seeded at a density of 30 000 cells/well in 96 well-plates (wells were pre-coated with poly-L-lysine (10 μg/ml)) and are cultured at +37° C. in a humidified air (95%)/CO2 (5%) atmosphere.
Three independent cultures are performed per condition, 6 wells per condition.
Test compounds and Human Amyloid-β1-42 Treatment
Briefly, Aβ1-42 peptide is reconstituted in define culture medium at 40 μM (mother solution) and was slowly shaken at +37° C. for 3 days in dark. The control medium is prepared in the same conditions.
After 3 days, the solution is used on primary cortical neurons as follows.
After 10 days of neuron culture, test compounds and combinations thereof are solved in culture medium (+0.1% DMSO) and then pre-incubated with neurons for one hour before the Aβ1_42 application (in a final volume per culture well of 100 μl). One hour after test compound(s) incubation, 100 μl of Aβ1-42 peptide is added to a final concentration of 10 μM diluted in presence of drug(s), in order to avoid further test compound(s) dilutions. Cortical neurons are intoxicated for 24 h. Three separate cultures are performed per condition, 6 wells per condition.
BDNF (50 ng/ml) is used as positive control. Three separate cultures are performed per condition, 12 wells per condition.
MAP2 Antibody Labelling Assay
24 hours after intoxication, the cell culture supernatant is taken off and the cortical neurons are fixed by a cold solution of ethanol (95%) and acetic acid (5%) for 5 min at −20° C. After permeabilization with 0.1% of saponin, cells are incubated for 2 h with mouse monoclonal antibody anti microtubule-associated-protein 2 (MAP-2; Sigma) at dilution of 1/400 in PBS containing 1% fetal calf serum and 0.1% of saponin (this antibody stains specifically cell bodies and neurites, allowing study of both the neurite network and cell death). […] For each condition, 30 pictures per well are taken using InCell Analyzer™ 1000 (GE Healthcare) with 20× magnification. All images are taken with the same conditions. Analysis of total neurite network and number of neurons is performed automatically by using Developer software (GE Healthcare).
Data are expressed in percentage of control conditions (no intoxication, no amyloid=100%) in order to express the amyloid injury. All values are expressed as mean+/−SEM (s.e.mean) of the 3 cultures (n=6 wells per condition). Statistical analyses are done on the different conditions (one-way ANOVA followed by the Dunnett's test when it is allowed, Statview software version 5.0).

O=S(=O)(c1ccccc1)c1cnc2c(N3CCNCC3)cccc2c1 [3-phenylsulfonyl-8-(piperazin-1-yl) quinoline]
effect on the impairment of cognitive function induced by Aβ(25-35), step-through passive avoidance (Male Swiss mice [1]): did not show any significant effect
effect on the impairment of cognitive function induced by Aβ(25-35), Y-maze (Male Swiss mice [2]): did not show any significant effect
protective effect on neuronal cells against Aβ1-42 toxicity [3]: no or a marginal protective effect

CC(=O)NCCCS(=O)(=O)O [acamprosate]
protective effect on neuronal cells against Aβ1-42 toxicity [3]: no or a marginal protective effect

NCC(CC(=O)O)c1ccc(Cl)cc1 (centres unmarked) [baclofen]
protective effect on neuronal cells against Aβ1-42 toxicity [3]: no or a marginal protective effect

CC12CC3CC(C)(C1)CC(N)(C3)C2 [memantine]
protective effect on neuronal cells against Aβ1-42 toxicity [3]: no or a marginal protective effect

CCN(C)C(=O)Oc1cccc([C@H](C)N(C)C)c1 [rivastigmine]
protective effect on neuronal cells against Aβ1-42 toxicity [3]: no or a marginal protective effect

Nc1c2c(nc3ccccc13)CCCC2 [tacrine]
protective effect on neuronal cells against Aβ1-42 toxicity [3]: no or a marginal protective effect
